We go through eleven molecules from paper PMC8151276, “An Integrated Approach toward NanoBRET Tracers for Analysis of GPCR Ligand Engagement” (Molecules, 2021).

In one assay the target is T1, HTR2C (Homo sapiens, UniProt P28335).
T1 construct: purchased Promega (in-house HiBiT-GPCR construct library, NanoBRET)
T1 sequence (P28335 33-458): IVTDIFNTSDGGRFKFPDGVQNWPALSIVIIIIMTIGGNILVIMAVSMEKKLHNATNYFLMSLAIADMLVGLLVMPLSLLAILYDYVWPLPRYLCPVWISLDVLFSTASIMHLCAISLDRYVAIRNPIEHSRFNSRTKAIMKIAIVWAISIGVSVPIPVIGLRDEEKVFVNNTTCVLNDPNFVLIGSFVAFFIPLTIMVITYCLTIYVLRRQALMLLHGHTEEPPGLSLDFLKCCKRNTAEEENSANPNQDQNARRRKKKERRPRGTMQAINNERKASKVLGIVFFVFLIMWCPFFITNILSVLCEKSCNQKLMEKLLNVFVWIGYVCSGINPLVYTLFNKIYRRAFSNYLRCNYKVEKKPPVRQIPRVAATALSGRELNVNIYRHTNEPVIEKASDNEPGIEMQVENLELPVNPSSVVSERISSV
In words: NanoBRET screen HiBiT-HTR2C in HEK293. In kind it is binding. The procedure:
(§1) Each tracer candidate was screened across the entire library of HiBiT-GPCR constructs using NanoBRET as the detection modality. As depicted in Figure 4A, the specificity of interactions was evaluated through decrease in BRET due to competitive displacement of a bound tracer by excess parental compound. Each tracer was analyzed for binding to each HiBiT-GPCR fusion in the absence and in the presence of competing parental compound. Briefly, HEK293 cells were transfected with HiBiT-GPCR constructs diluted into promoterless DNA to reduce expression and maximize translocation to the cell surface. Each tracer candidate was then screened at concentrations of 1 μM and 0.1 μM across cells expressing these fusions. Cells were treated for 1.5 h with tracer either alone or in the presence of 20 μM competing parental compound (i.e., control). BRET was measured upon addition of purified LgBiT and subsequent complementation with HiBiT genetically fused to a GPCR. The specificity of interactions was assessed through a decrease in BRET signal due to competitive displacement of the bound tracer. To further gauge the robustness of these interactions, the fold response over the control (i.e., BRETtracer/BRETcontrol) was calculated. We chose a 1.5-fold response, which translates to ≥7-fold signal over noise as the minimal threshold required to score an interaction as positive.
(§2) HiBiT-GPCR DNA constructs were diluted in 10 mM Tris pH 8 to a final concentration of 0.01 μg/μL, arrayed in 96-well plates and stored at −20 °C. For transfection, HEK293 cells were suspended in Opti-MEM (without phenol red) supplemented with 2% fetal bovine serum (Seradigm) and 100 units/mL penicillin–streptomycin (Gibco) at a final concentration of 220,000 cells/mL and dispensed into white 96-well plates at 90 μL/well. Subsequent transfections and screens were carried using an Agilent Bravo Automated Liquid Handling Platform. First, the 96-well HiBiT DNA arrays were diluted 25-fold in Opti-MEM (without serum or phenol red) to a final concentration of 0.0004 μg/μL and 20 μL of the diluted DNAs were transferred into new 96-well plates. Next, promoterless carrier DNA (1 μg/μL) was diluted 25-fold (0.04 μg/μL) and then dispensed into the diluted arrays at 20 μL/well. Following brief mixing, Viafect transfection reagent (Promega) diluted 16-fold into Opti-MEM was dispensed into the plates at 40 μL/well. After mixing by pipetting, plates were incubated for 10 min on the pipetting station deck. The DNA-transfection reagent complexes were then added to plates containing cells. To facilitate the screen, 10 μL of DNA-transfection reagent complexes were added in duplicates to the top 4 and bottom 4 rows, resulting in two identical 48-well arrays per plate. Plates with transfected cells were incubated for 18–20 h at 37 °C/5% CO2. A screen of each tracer across the entire library using two different concentrations requires duplicate plates of transfected cells. Depending on the number of tracers being screened, transfections can be scaled up using the same ratios. The next day, for each tracer, four 20× screening solutions in tracer dilution buffer (Promega) were prepared: two duplicates at final concentration of 20 μM and two duplicates at a final concentration of 2 μM. […] The four resulting solutions were diluted 4-fold in Opti-MEM without serum or phenol red to generate 5× solutions (5 µM and 0.5 µM tracer +/− 100 μM competing compound). To screen the library, a BioTek MultiFlo FX liquid dispenser was used to dispense 22.5 µL of tracer solution to the top 4 rows and 22.5 µL tracer + competing compound solution to the 4 bottom rows. Plates were briefly mixed on an orbital shaker and incubated for 1.5 h at room temperature. […] Plates were briefly mixed on an orbital shaker and incubated for 15 min to allow complementation.

The next assay addresses T2, OPRM1 (Homo sapiens, UniProt P35372).
T2 construct: purchased Promega (in-house HiBiT-GPCR construct library, NanoBRET)
Nature of the assay: NanoBRET screen HiBiT-OPRM1 in HEK293. In kind it is binding. On the procedure: as §1, §2
In general terms: BRET reads energy transfer from a luciferase to a nearby fluorophore.

Setting [1] is: tracer at 0.1μM, listed as amitriptyline-b-2-NB590.
The mark [2] stands for this setting: tracer at 1μM, listed as amitriptyline-b-2-NB590.

T2 sequence (P35372 whole entry): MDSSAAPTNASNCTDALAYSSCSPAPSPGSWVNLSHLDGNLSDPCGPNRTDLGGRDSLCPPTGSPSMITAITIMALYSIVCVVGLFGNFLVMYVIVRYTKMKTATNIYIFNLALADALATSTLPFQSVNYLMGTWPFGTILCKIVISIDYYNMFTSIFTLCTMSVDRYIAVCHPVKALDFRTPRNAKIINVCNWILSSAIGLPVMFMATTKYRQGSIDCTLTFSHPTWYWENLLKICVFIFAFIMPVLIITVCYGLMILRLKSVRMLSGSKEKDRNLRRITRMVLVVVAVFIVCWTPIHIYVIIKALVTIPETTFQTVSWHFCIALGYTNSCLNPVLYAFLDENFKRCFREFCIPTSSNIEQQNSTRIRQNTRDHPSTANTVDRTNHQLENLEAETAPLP

On to `O=C(CCOCCOCCOCCOCCNC(=O)CCc1ccc2n1[B-](F)(F)[N+]1=C(c3ccc[nH]3)C=CC1=C2)NCCCN1CCN(C2=Nc3cc(Cl)ccc3Nc3ccccc32)CC1` [Clozapine-a-2-NB590], for which the “NanoBRET Fold Response” value at HTR2C (HTR2C, 0.1μM tracer) turned out to be 1.89; at HTR2C (HTR2C, 1μM tracer), 3.22; on OPRM1 (OPRM1, 0.1μM tracer) it was 0.98; on OPRM1 (OPRM1, 1μM tracer) it was 1.13.

In the case of `COc1ccc2[nH]c(-c3ccc(CNC(=O)CCOCCOCCOCCOCCNC(=O)CCc4ccc5n4[B-](F)(F)[N+]4=C(c6ccc[nH]6)C=CC4=C5)cc3)c(CCNC(C)=O)c2n1` [AzomelatoninICO9-2-NB590], the “NanoBRET Fold Response” value amounted to 1.02 on HTR2C (0.1μM tracer), 1.10 on HTR2C (1μM tracer), 0.74 at OPRM1 (0.1μM tracer) and 0.86 at OPRM1 (1μM tracer).

With `COc1ccccc1N1CCN(CCCCN2C(=O)c3ccc(CNC(=O)CCOCCNC(=O)c4ccc(CNC(=O)CCc5ccc6n5[B-](F)(F)[N+]5=C(c7ccc[nH]7)C=CC5=C6)cc4)cc3C2=O)CC1` [NAN-190-3-NB590], the “NanoBRET Fold Response” value on HTR2C (HTR2C, tracer 0.1μM) is 1.04; at HTR2C (HTR2C, tracer 1μM), 1.06; on OPRM1 (OPRM1, tracer 0.1μM), 1.39; at OPRM1 (OPRM1, tracer 1μM), 0.91.

As for `N#CN=C(NCCCOc1cccc(CN2CCCCC2)c1)NCCNC(=O)CCOCCOCCOCCOCCNC(=O)CCc1ccc2n1[B-](F)(F)[N+]1=C(c3ccc[nH]3)C=CC1=C2` [Aminopotentidine-2-NB590], the “NanoBRET Fold Response” value on HTR2C (HTR2C, tracer 0.1μM) came out at 1.01; on HTR2C (HTR2C, tracer 1μM) it was 1.04; on OPRM1 (OPRM1, tracer 0.1μM), 1.02; on OPRM1 (OPRM1, tracer 1μM), 1.01.

For `CN(C)CCC=C1c2ccccc2CCc2ccc(C(=O)NCCNC(=O)CCOCCOCCOCCOCCNC(=O)CCc3ccc4n3[B-](F)(F)[N+]3=C(c5ccc[nH]5)C=CC3=C4)cc21` [Amitriptyline-b-2-NB590], the “NanoBRET Fold Response” value at HTR2C (setting [1]) worked out at 1.74; on HTR2C (setting [2]) it was 2.18; at OPRM1 (setting [1]), 0.87; on OPRM1 (setting [2]), 0.87.

Turning to `COc1ccccc1N1CCN(CCCCN2C(=O)c3ccc(CNC(=O)CCOCCOCCOCCOCCNC(=O)CCc4ccc5n4[B-](F)(F)[N+]4=C(c6ccc[nH]6)C=CC4=C5)cc3C2=O)CC1` [NAN-190-2-NB590], the “NanoBRET Fold Response” value at HTR2C (HTR2C, tracer 0.1μM) was 1.00; on HTR2C (HTR2C, tracer 1μM), 1.14; on OPRM1 (OPRM1, tracer 0.1μM), 0.96; at OPRM1 (OPRM1, tracer 1μM), 1.10.

As for `O=C(CCOCCOCCOCCOCCNC(=O)CCc1ccc2n1[B-](F)(F)[N+]1=C(c3ccc[nH]3)C=CC1=C2)NCCCN1CCN(C2=Nc3ccccc3Oc3ccc(Cl)cc32)CC1` [Loxapine-a-2-NB590], the “NanoBRET Fold Response” value was determined as 1.60 on HTR2C (HTR2C, tracer 0.1μM); 1.62 on HTR2C (HTR2C, tracer 1μM); 1.06 on OPRM1 (OPRM1, tracer 0.1μM); 1.06 at OPRM1 (OPRM1, tracer 1μM).

Regarding `CN(CCC=C1c2ccccc2CCc2ccccc21)C(=O)CCOCCOCCOCCOCCNC(=O)CCc1ccc2n1[B-](F)(F)[N+]1=C(c3ccc[nH]3)C=CC1=C2` [Amitriptyline-e-2-NB590], the “NanoBRET Fold Response” value is listed as 1.03 at HTR2C (tracer at 1μM) and 1.04 on OPRM1 (tracer at 1μM).

Take `CCCn1c(=O)c2[nH]c(-c3ccc(OCC(=O)NCCNC(=O)CCOCCNC(=O)c4ccc(CNC(=O)CCc5ccc6n5[B-](F)(F)[N+]5=C(c7ccc[nH]7)C=CC5=C6)cc4)cc3)nc2n(CCC)c1=O` [XAC-3-NB590]: the “NanoBRET Fold Response” value came to 1.45 at HTR2C (HTR2C, tracer 0.1μM); 0.88 at HTR2C (HTR2C, tracer 1μM); 0.85 at OPRM1 (OPRM1, tracer 0.1μM); 1.02 at OPRM1 (OPRM1, tracer 1μM).

`CN(C)CCC=C1c2ccccc2CCc2ccc(C(=O)NCCNC(=O)CCOCCOCCOCCOCCNC(=O)CCc3ccc4n3[B-](F)(F)[N+]3=C(c5ccc[nH]5)C=CC3=C4)cc21` [Amitriptyline-a-2-NB590]: the “NanoBRET Fold Response” value at HTR2C (tracer at 1μM) was 1.80; on OPRM1 (tracer at 0.1μM), 0.95; at OPRM1 (tracer at 1μM), 1.10.

For the molecule `CCOC(=O)c1cc(C#N)c(N2CCC(C(=O)NS(=O)(=O)Cc3ccccc3/C=C/C(=O)NCCNC(=O)CCc3ccc4n3[B-](F)(F)[N+]3=C(c5ccc[nH]5)C=CC3=C4)CC2)nc1C` [AZD1283-1-NB590], the “NanoBRET Fold Response” value came to 0.95 at HTR2C (HTR2C, 0.1μM); 1.04 on HTR2C (HTR2C, 1μM); 1.07 on OPRM1 (OPRM1, 0.1μM); 0.95 at OPRM1 (OPRM1, 1μM).
